Where a SMILES comes first, the peptide text is derived from it.
Legend:
L. crispatus and E. coli = test: Therapeutic Effect Protocol: L. crispatus / E. coli co-culture, ratio after 36 hours; format: cell-based, Lactobacillus crispatus; E. coli; settings: for Therapeutic Efficacy Results (Lactobacillus/E. coli) 0.10%: nitrogen compound 0.10 wt/vol % with 1.0 wt/vol % α methyl-D glucoside (10:1); for Therapeutic Efficacy Results (Lactobacillus/E. coli) 0.10% / Therapeutic Efficacy Results (Lactobacillus/E. coli) 0.50% / Therapeutic Efficacy Results (Lactobacillus/E. coli) 1.00%: 36 hours anaerobic co-culture, 37° C.; for Therapeutic Efficacy Results (Lactobacillus/E. coli) 0.50%: nitrogen compound 0.50 wt/vol % with 1.0 wt/vol % α methyl-D glucoside (2:1); for Therapeutic Efficacy Results (Lactobacillus/E. coli) 1.00%: nitrogen compound 1.00 wt/vol % with 1.0 wt/vol % α methyl-D glucoside (1:1); for Therapeutic effect (ratio of Lactobacillus to E. coli greater than 2) at each concentration tested / Therapeutic effect when ratio α methyl-D glucoside : nitrogen compound is less than 2:1 (1:1) / Therapeutic effect when ratio α methyl-D glucoside : nitrogen compound is at least about 2:1, but not at 1:1 / Therapeutic effect at ratio 2:1 and 10:1, but not at 1:1: with α methyl-D glucoside; for Therapeutic effect (ratio of Lactobacillus to E. coli greater than 2) at each concentration tested: nitrogen compound 1 wt/vol %, 0.5 wt/vol % and 0.1 wt/vol %; for Therapeutic effect when ratio α methyl-D glucoside : nitrogen compound is less than 2:1 (1:1): ratio 1:1; for Therapeutic effect when ratio α methyl-D glucoside : nitrogen compound is at least about 2:1, but not at 1:1: ratio at least about 2:1, not 1:1; for Therapeutic effect at ratio 2:1 and 10:1, but not at 1:1: ratios 2:1 and 10:1, not 1:1
In short: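 L. crispatus and E. coli were mixed 1,000:1 (10^5-10^6 and 100-1,000 CFU per 5 mL tube) in LAPT-g medium at pH 6.5, containing 1% α-methyl-D-glucoside plus nitrogen compound at 0.1-1% w/v, in duplicate. After 36 h anaerobic incubation at 37 °C, each species was counted by selective plating (MRS anaerobic, TSA aerobic), and the L. crispatus:E. coli ratio and final pH were recorded.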

[1] = Initial pH screening of the composition; format: physicochemical; settings: for I pH (initial pH), 0.10%: nitrogen compound 0.10 wt/vol % with 1.0 wt/vol % α methyl-D glucoside in medium; for I pH (initial pH), 0.50%: nitrogen compound 0.50 wt/vol % with 1.0 wt/vol % α methyl-D glucoside in medium; for I pH (initial pH), 1.00%: nitrogen compound 1.00 wt/vol % with 1.0 wt/vol % α methyl-D glucoside in medium
In short: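 Compounds were added to LAPT-g medium (pH adjusted to 6.5) at a final 0.1-1.0%. Solubility was judged visually by precipitate or turbidity, and insoluble compositions got no pH measurement. Initial pH was scored Low (<5.5), High (>6.5) or Pass (5.5-6.5), and only soluble Pass compositions went on to efficacy testing.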

N[C@@H](CS)C(=O)O [L-Cysteine]
Therapeutic Efficacy Results (Lactobacillus/E. coli) 0.10% (L. crispatus and E. coli): >299
Therapeutic Efficacy Results (Lactobacillus/E. coli) 0.50% (L. crispatus and E. coli): 28.38
Therapeutic Efficacy Results (Lactobacillus/E. coli) 1.00% (L. crispatus and E. coli): 10.44
Therapeutic effect (ratio of Lactobacillus to E. coli greater than 2) at each concentration tested (L. crispatus and E. coli): provided a therapeutic effect
Therapeutic effect when ratio α methyl-D glucoside : nitrogen compound is less than 2:1 (1:1) (L. crispatus and E. coli): provided a therapeutic effect
I pH (initial pH), 0.10% [1]: P (a Pass initial pH corresponds to the pH being at or between 5.5-6.5)
I pH (initial pH), 0.50% [1]: P (a Pass initial pH corresponds to the pH being at or between 5.5-6.5)
I pH (initial pH), 1.00% [1]: P (a Pass initial pH corresponds to the pH being at or between 5.5-6.5)

NC(=O)CC[C@H](N)C(=O)O [L-Glutamine]
Therapeutic Efficacy Results (Lactobacillus/E. coli) 0.10% (L. crispatus and E. coli): >161
Therapeutic Efficacy Results (Lactobacillus/E. coli) 0.50% (L. crispatus and E. coli): 1.28
Therapeutic Efficacy Results (Lactobacillus/E. coli) 1.00% (L. crispatus and E. coli): 0.53
Therapeutic effect when ratio α methyl-D glucoside : nitrogen compound is at least about 2:1, but not at 1:1 (L. crispatus and E. coli): provided a therapeutic effect
I pH (initial pH), 0.10% [1]: P (a Pass initial pH corresponds to the pH being at or between 5.5-6.5)
I pH (initial pH), 0.50% [1]: P (a Pass initial pH corresponds to the pH being at or between 5.5-6.5)
I pH (initial pH), 1.00% [1]: P (a Pass initial pH corresponds to the pH being at or between 5.5-6.5)

N[C@@H](CCO)C(=O)O [L-Homoserine]
Therapeutic Efficacy Results (Lactobacillus/E. coli) 0.10% (L. crispatus and E. coli): >750
Therapeutic Efficacy Results (Lactobacillus/E. coli) 0.50% (L. crispatus and E. coli): 0.66
Therapeutic Efficacy Results (Lactobacillus/E. coli) 1.00% (L. crispatus and E. coli): 0.33
Therapeutic effect when ratio α methyl-D glucoside : nitrogen compound is at least about 2:1, but not at 1:1 (L. crispatus and E. coli): provided a therapeutic effect
I pH (initial pH), 0.10% [1]: P (a Pass initial pH corresponds to the pH being at or between 5.5-6.5)
I pH (initial pH), 0.50% [1]: P (a Pass initial pH corresponds to the pH being at or between 5.5-6.5)
I pH (initial pH), 1.00% [1]: P (a Pass initial pH corresponds to the pH being at or between 5.5-6.5)

NCCCC[C@H](N)C(=O)O [L-Lysine]
Therapeutic Efficacy Results (Lactobacillus/E. coli) 0.10% (L. crispatus and E. coli): >141
Therapeutic Efficacy Results (Lactobacillus/E. coli) 0.50% (L. crispatus and E. coli): 1.93
Therapeutic Efficacy Results (Lactobacillus/E. coli) 1.00% (L. crispatus and E. coli): 0.42
Therapeutic effect when ratio α methyl-D glucoside : nitrogen compound is at least about 2:1, but not at 1:1 (L. crispatus and E. coli): provided a therapeutic effect
I pH (initial pH), 0.10% [1]: P (a Pass initial pH corresponds to the pH being at or between 5.5-6.5)
I pH (initial pH), 0.50% [1]: P (a Pass initial pH corresponds to the pH being at or between 5.5-6.5)
I pH (initial pH), 1.00% [1]: P (a Pass initial pH corresponds to the pH being at or between 5.5-6.5)

CSCC[C@H](N)C(=O)O [L-Methionine]
Therapeutic Efficacy Results (Lactobacillus/E. coli) 0.10% (L. crispatus and E. coli): >1.71E+05
Therapeutic Efficacy Results (Lactobacillus/E. coli) 0.50% (L. crispatus and E. coli): 0.78
Therapeutic Efficacy Results (Lactobacillus/E. coli) 1.00% (L. crispatus and E. coli): 0.75
Therapeutic effect when ratio α methyl-D glucoside : nitrogen compound is at least about 2:1, but not at 1:1 (L. crispatus and E. coli): provided a therapeutic effect
I pH (initial pH), 0.10% [1]: P (a Pass initial pH corresponds to the pH being at or between 5.5-6.5)
I pH (initial pH), 0.50% [1]: P (a Pass initial pH corresponds to the pH being at or between 5.5-6.5)
I pH (initial pH), 1.00% [1]: P (a Pass initial pH corresponds to the pH being at or between 5.5-6.5)

Cl.NCCC[C@H](N)C(=O)O [L-Ornthine]
Therapeutic Efficacy Results (Lactobacillus/E. coli) 0.10% (L. crispatus and E. coli): 1.31
Therapeutic Efficacy Results (Lactobacillus/E. coli) 0.50% (L. crispatus and E. coli): 1.24
Therapeutic Efficacy Results (Lactobacillus/E. coli) 1.00% (L. crispatus and E. coli): 3.97
Therapeutic effect when ratio α methyl-D glucoside : nitrogen compound is less than 2:1 (1:1) (L. crispatus and E. coli): provided a therapeutic effect
I pH (initial pH), 0.10% [1]: P (a Pass initial pH corresponds to the pH being at or between 5.5-6.5)
I pH (initial pH), 0.50% [1]: P (a Pass initial pH corresponds to the pH being at or between 5.5-6.5)
I pH (initial pH), 1.00% [1]: P (a Pass initial pH corresponds to the pH being at or between 5.5-6.5)

N[C@@H](CO)C(=O)O [L-Serine]
Therapeutic Efficacy Results (Lactobacillus/E. coli) 0.10% (L. crispatus and E. coli): 393
Therapeutic Efficacy Results (Lactobacillus/E. coli) 0.50% (L. crispatus and E. coli): >299
Therapeutic Efficacy Results (Lactobacillus/E. coli) 1.00% (L. crispatus and E. coli): 0.45
Therapeutic effect when ratio α methyl-D glucoside : nitrogen compound is at least about 2:1, but not at 1:1 (L. crispatus and E. coli): provided a therapeutic effect
Therapeutic effect at ratio 2:1 and 10:1, but not at 1:1 (L. crispatus and E. coli): provided a therapeutic effect
I pH (initial pH), 0.10% [1]: P (a Pass initial pH corresponds to the pH being at or between 5.5-6.5)
I pH (initial pH), 0.50% [1]: P (a Pass initial pH corresponds to the pH being at or between 5.5-6.5)
I pH (initial pH), 1.00% [1]: P (a Pass initial pH corresponds to the pH being at or between 5.5-6.5)

C[C@@H](O)[C@H](N)C(=O)O [L-Threonine]
Therapeutic Efficacy Results (Lactobacillus/E. coli) 0.10% (L. crispatus and E. coli): 0.74
Therapeutic Efficacy Results (Lactobacillus/E. coli) 0.50% (L. crispatus and E. coli): 1.13
Therapeutic Efficacy Results (Lactobacillus/E. coli) 1.00% (L. crispatus and E. coli): 0.36
I pH (initial pH), 0.10% [1]: P (a Pass initial pH corresponds to the pH being at or between 5.5-6.5)
I pH (initial pH), 0.50% [1]: P (a Pass initial pH corresponds to the pH being at or between 5.5-6.5)
I pH (initial pH), 1.00% [1]: P (a Pass initial pH corresponds to the pH being at or between 5.5-6.5)

N[C@@H](Cc1ccc(O)cc1)C(=O)O [L-Tyrosine]
Therapeutic Efficacy Results (Lactobacillus/E. coli) 0.10% (L. crispatus and E. coli): 2.72
I pH (initial pH), 0.10% [1]: P (a Pass initial pH corresponds to the pH being at or between 5.5-6.5)

CC(C)[C@H](N)C(=O)O [L-Valine]
Therapeutic Efficacy Results (Lactobacillus/E. coli) 0.10% (L. crispatus and E. coli): 1.34
Therapeutic Efficacy Results (Lactobacillus/E. coli) 0.50% (L. crispatus and E. coli): 0.38
Therapeutic Efficacy Results (Lactobacillus/E. coli) 1.00% (L. crispatus and E. coli): 1.01
I pH (initial pH), 0.10% [1]: P (a Pass initial pH corresponds to the pH being at or between 5.5-6.5)
I pH (initial pH), 0.50% [1]: P (a Pass initial pH corresponds to the pH being at or between 5.5-6.5)
I pH (initial pH), 1.00% [1]: P (a Pass initial pH corresponds to the pH being at or between 5.5-6.5)

CSCC[C@H](N)C(=O)N[C@@H](C)C(=O)O [Met-Ala] (H-Met-Ala-OH)
Therapeutic Efficacy Results (Lactobacillus/E. coli) 0.10% (L. crispatus and E. coli): 7.33
Therapeutic effect when ratio α methyl-D glucoside : nitrogen compound is at least about 2:1, but not at 1:1 (L. crispatus and E. coli): provided a therapeutic effect
I pH (initial pH), 0.10% [1]: P (a Pass initial pH corresponds to the pH being at or between 5.5-6.5)
I pH (initial pH), 0.50% [1]: L (A Low initial pH corresponds to an initial pH being less than 5.5)
I pH (initial pH), 1.00% [1]: L (A Low initial pH corresponds to an initial pH being less than 5.5)

CNCCc1ccccc1.Cl [Methyl(2-phenylethyl)amine Hydrochloride]
Therapeutic Efficacy Results (Lactobacillus/E. coli) 0.10% (L. crispatus and E. coli): 10
Therapeutic Efficacy Results (Lactobacillus/E. coli) 0.50% (L. crispatus and E. coli): <1.00
Therapeutic Efficacy Results (Lactobacillus/E. coli) 1.00% (L. crispatus and E. coli): 3
Therapeutic effect when ratio α methyl-D glucoside : nitrogen compound is less than 2:1 (1:1) (L. crispatus and E. coli): provided a therapeutic effect
Therapeutic effect when ratio α methyl-D glucoside : nitrogen compound is at least about 2:1, but not at 1:1 (L. crispatus and E. coli): provided a therapeutic effect
I pH (initial pH), 0.10% [1]: P (a Pass initial pH corresponds to the pH being at or between 5.5-6.5)
I pH (initial pH), 0.50% [1]: P (a Pass initial pH corresponds to the pH being at or between 5.5-6.5)
I pH (initial pH), 1.00% [1]: P (a Pass initial pH corresponds to the pH being at or between 5.5-6.5)

CC(=O)N[C@H]1C(O)O[C@H](CO)[C@H](O)[C@@H]1O (stereo partly drawn) [N-Acetyl-D-Galactosamine]
Therapeutic Efficacy Results (Lactobacillus/E. coli) 0.10% (L. crispatus and E. coli): 130
Therapeutic Efficacy Results (Lactobacillus/E. coli) 0.50% (L. crispatus and E. coli): >100
Therapeutic Efficacy Results (Lactobacillus/E. coli) 1.00% (L. crispatus and E. coli): 0.65
Therapeutic effect when ratio α methyl-D glucoside : nitrogen compound is at least about 2:1, but not at 1:1 (L. crispatus and E. coli): provided a therapeutic effect
Therapeutic effect at ratio 2:1 and 10:1, but not at 1:1 (L. crispatus and E. coli): provided a therapeutic effect
I pH (initial pH), 0.10% [1]: P (a Pass initial pH corresponds to the pH being at or between 5.5-6.5)
I pH (initial pH), 0.50% [1]: P (a Pass initial pH corresponds to the pH being at or between 5.5-6.5)
I pH (initial pH), 1.00% [1]: P (a Pass initial pH corresponds to the pH being at or between 5.5-6.5)

CC(=O)N[C@H]1C(O)O[C@H](CO)[C@@H](O)[C@@H]1O (stereo partly drawn) [N-Acetyl-D-Glucosamine]
Therapeutic Efficacy Results (Lactobacillus/E. coli) 0.10% (L. crispatus and E. coli): 8.33
Therapeutic Efficacy Results (Lactobacillus/E. coli) 0.50% (L. crispatus and E. coli): 211
Therapeutic Efficacy Results (Lactobacillus/E. coli) 1.00% (L. crispatus and E. coli): 7.00E+06
Therapeutic effect (ratio of Lactobacillus to E. coli greater than 2) at each concentration tested (L. crispatus and E. coli): provided a therapeutic effect
Therapeutic effect when ratio α methyl-D glucoside : nitrogen compound is less than 2:1 (1:1) (L. crispatus and E. coli): provided a therapeutic effect
I pH (initial pH), 0.10% [1]: P (a Pass initial pH corresponds to the pH being at or between 5.5-6.5)
I pH (initial pH), 0.50% [1]: P (a Pass initial pH corresponds to the pH being at or between 5.5-6.5)
I pH (initial pH), 1.00% [1]: P (a Pass initial pH corresponds to the pH being at or between 5.5-6.5)

Reference: patent US12029748B2, “Synergistic composition for maintenance of healthy balance of microflora” (KIMBERLY-CLARK WORLDWIDE, INC., priority 2017, dated 2024)
